How the values were obtained:
WHV = details: chronically-infected woodchucks; cited from earlier work
HBV [1] = experiment: Serum HBV DNA level in treated patients (Digene Hybrid Capture II capture hybridization assay); type: in vivo, human; details: for HBV DNA: patient A, on LMV
Description: (§1) Patient A is a person with chronic hepatitis B presented on Day 0 (9 Jul. 1999) with raised serum HBV DNA levels (>2000 pg/ml) and was commenced on LMV treatment immediately (FIG. 2). The patient A was HBsAg positive and anti-HBe positive. Following the initiation of LMV treatment the HBV DNA levels fell to 8 pg/ml over 54 days of therapy. […] By Day 241 the serum ALT peaked at 741 IU/l. The HBV DNA was sequenced and LMV resistant virus was detected. […] The patient was started on open label ETV plus LMV.
Patient B is a liver transplant patient. […] The patient was treated with LMV prior to ETV. The patient is currently on ETV treatment. […] The HBV DNA from this sample was further characterized by sequencing.
Hepatitis B surface antigen (HBsAg), hepatitis B e antigen (HBeAg), anti-HBe and hepatitis B core antigen (HBcAg) specific IgG and IgM were measured using commercially available immunoassays (Abbott Laboratories, North Chicago, Ill., USA). Hepatitis B viral DNA levels were measured using a capture hybridization assay according to the manufacturer's directions (Digene Hybrid Capture II, Digene Diagnostics Inc., Beltsville, Md.). The manufacturers stated cut-off for detecting HBV viremia in clinical specimens was 0.7×10^6 copies/ml or 2.5 pg/ml, [Hendricks D A, et al., Am J Clin Pathol 104: 537-46, 1995].

HBV [2] = details: four week dose-escalation trial; highest dose tested (1 mg/daily); cited from earlier work
[3] = tested on: HBV encoding rtI169T+rtV173L+rtL180M+rtM204V; experiment: Antiviral testing with recombinant HBV/baculovirus in HepG2 cells, replicative intermediates by quantitative real-time PCR, quadruple mutant; type: cell-based, hepatitis B virus; details: quadruple mutant rtI169T+rtV173L+rtL180M+rtM204V vs wild type; especially at concentrations up to 0.5 μM ETV; FIG. 11
Procedure: The sensitivity/resistance profile of HBV mutants to entecavir was examined in vitro using recombinant HBV/baculovirus. The procedure for analysing the resistance profile is outlined in the following Examples 7-14.
Sf21 insect cells were maintained in supplemented Grace's insect medium further supplemented with 10% v/v heat-inactivated fetal bovine serum (Gibco BRL, Gaithersburg, Md.) in humidified incubator at 28 C with CO2. HepG2 cells were maintained in minimal essential medium supplemented with 10% v/v heat-inactivated fetal bovine serum (MEM-FBS). HepG2 cells were grown in humidified 37° C. incubators at 5% v/v CO2.
The recombinant HBV/baculovirus system used for antiviral testing has been previously described (Delaney et al., Antimicrob Agents Chemother 45(6): 1705-[…], 2001). […] The nucleotide sequence of the plasmid and the point mutations generated by site directed mutagenesis were confirmed by sequencing using the ABI Prism Big Dye Terminator Cycle Sequencing Ready Reaction Kit according to the manufacturer's specifications (Perkin Elmer, Cetus Norwalk, Conn.). […]
HepG2 cells were seeded at approximately 20-40% confluency and then were grown for 16-24 hours before infection. On the day of infection, triplicate plates of cells were trypsinized, and viable cell number was determined with a hemocytometer using Trypan blue exclusion. […]

[4] = Serum ALT level in treated patient A; type: in vivo, human; details: on LMV
Description: as §1

[5] = day 382 post LMV treatment, day blinded ETV vs LMV phase started

SMILES: C=C1[C@H](CO)[C@@H](O)C[C@@H]1n1cnc2c(=O)[nH]c(N)nc21 [ETV]
- efficacy against WHV (WHV): demonstrated efficacy
- HBV DNA levels (HBV [1]; patient B (liver transplant, LMV before ETV), during ETV treatment): less than 5 pg/ml
- HBV DNA levels (HBV [1]; patient B, at 532 days ETV treatment (3857 days post transplant), rise): 993 pg/mL
- mean reduction in viremia (HBV [2]): 2.5 log10
- sensitivity to ETV (HBV DNA replicative intermediates by quantitative PCR) [3]: reduced sensitivity to ETV

SMILES: Nc1ccn([C@@H]2CS[C@H](CO)O2)c(=O)n1 [LMV, (−)-β-2′-deoxy-3′-thiacytidine]
- HBV DNA (HBV [1]; day 54 post LMV treatment): 8 pg/mL
- HBV DNA (HBV [1]; day 173 post LMV treatment): 837 pg/mL
- HBV DNA (HBV [1]; day 199 post LMV treatment): 1826 pg/mL
- HBV DNA (HBV [1]; day 241 post LMV treatment): 930 pg/mL
- HBV DNA (HBV [1]; day 283 post LMV treatment): 1631 pg/mL
- HBV DNA (HBV [1]; day 312 post LMV treatment): 1539 pg/mL
- HBV DNA (HBV [1]; day 348 post LMV treatment): 1605 pg/mL
- HBV DNA (HBV [1]; [5]): 1303 pg/mL
- ALT ([4]; day 54 post LMV treatment): 510 IU/L
- ALT ([4]; day 87 post LMV treatment): 211 IU/L
- ALT ([4]; day 115 post LMV treatment): 106 IU/L
- ALT ([4]; day 173 post LMV treatment): 186 IU/L
- ALT ([4]; day 199 post LMV treatment): 233 IU/L
- ALT ([4]; day 241 post LMV treatment): 741 IU/L
- ALT ([4]; day 283 post LMV treatment): 334 IU/L
- ALT ([4]; day 312 post LMV treatment): 238 IU/L
- ALT ([4]; day 348 post LMV treatment): 349 IU/L
- ALT [4, 5]: 317 IU/L

— US8211633B2, “Viral variants with altered susceptibility to nucleoside analogs and uses thereof” (priority 2002, dated 2012)
